According to patent US7455855B2, “Delivering substance and drug delivery system using the same” (Santen Pharmaceutical Co., Ltd., priority 2000, dated 2008):
Structures can show the parent of a compound that is named as a salt. Where two headings read alike, the source gives them in different places.

Experiments:
[1] = 3H-labelled, 100 μl/eye into vitreous body, moment method, 1 to 21 days, average of three samples
[2] = Intraocular kinetic tests by fluorophotometry after injection into the vitreous body; assay type: in vivo, white rabbits; conditions: for half-life: rabbit, other: injection into the vitreous body (intravitreal)
Method: Intraocular kinetic tests were conducted by the following methods using the delivering substances A and B containing a fluorescence.
The same procedure as mentioned above was repeated except that fluorescein sodium was used instead of the delivering substances A and B to prepare a 10 μg/ml injection containing fluorescein sodium for comparison.
1) A mixed solution containing an aqueous ketamine hydrochloride solution (50 mg/ml) and an aqueous xylazine hydrochloride (50 mg/ml) in a ratio of 7:3 was administered intramuscularly to white rabbits to anesthetize.
2) A tropicamide (0.5%)/phenylephrine hydrochloride (0.5%) ophthalmic solution was instilled into both eyes to cause mydriasis in the both eyes.
3) The both eyes were anesthetized with an oxybuprocaine hydrochloride (0.5%) ophthalmic solution.
4) Each of the above-mentioned injection was administered to the center of a vitreous body from an ocular pars plana with a syringe equipped with a 30G needle.
5) Intraocular fluorescence intensity was measured with a fluorophotometry apparatus after the administration to the vitreous body at 1, 4, 7, 15, 35 and 56 days. A calibration curves were prepared, changes in concentration in the vitreous body and a retina were determined, and respective half-lives were calculated. The above-mentioned operations 1) and 2) were carried out before the intraocular fluorescence intensity was measured, too.
The numerical values in Tables 1 and 2 are the average of three samples respectively.

Row | SMILES | Half-life (days) in the retina ([1]; retina) | Half-life (days) in the vitreous body ([1]; vitreous body) | half-life ([2]; retina, restated in hours in the text, read-out: half-life in the retina) | half-life in the vitreous body ([2]; vitreous body, restated in hours in the text) | half-life ([2]; white, 10 μg/ml, retina, injection into the vitreous body, moment method from data measured 1 to 56 days after injection, average of three samples, read-out: Half-life (days) in the retina) | half-life ([2]; white, vitreous body, injection into the vitreous body, moment method from data measured 1 to 35 days after injection, average of three samples, read-out: Half-life (days) in the vitreous body)
1 | C[C@]12N[C@H](Cc3ccccc31)c1ccccc12 [Comparative substance X, [5R,10S]-(+)-5-methyl-10,11-dihydro-5H-dibenzo[a,d]cycloheptene-5,10-imine maleate] | 0.6 days | 0.5 days | – | – | – | –
2 | O=C1OC2(c3ccc(O)cc3Oc3cc(O)ccc32)c2ccccc21 [Fluorescein sodium, fluorescein sodium] | – | – | < 0.1 days | less than five hours | < 0.1 days | < 0.2 days
